Source: ChEMBL document CHEMBL1201862, “PubChem BioAssay data set” (2004)
The source made the active and inactive calls. Rule as the data show it: actives have a measured IC50 and inactives only a lower limit.

Molecular target: Envelope glycoprotein gp160 (Human immunodeficiency virus 1, UniProt Q6QLK5)
Experiment: inhibitors of HIV fusion peptide binding, primary screen, biochemical, uHTS, fluorescence dequenching (AID 1986)

Envelope glycoprotein gp160, sequence (Q6QLK5 whole entry, the tested form may be a part): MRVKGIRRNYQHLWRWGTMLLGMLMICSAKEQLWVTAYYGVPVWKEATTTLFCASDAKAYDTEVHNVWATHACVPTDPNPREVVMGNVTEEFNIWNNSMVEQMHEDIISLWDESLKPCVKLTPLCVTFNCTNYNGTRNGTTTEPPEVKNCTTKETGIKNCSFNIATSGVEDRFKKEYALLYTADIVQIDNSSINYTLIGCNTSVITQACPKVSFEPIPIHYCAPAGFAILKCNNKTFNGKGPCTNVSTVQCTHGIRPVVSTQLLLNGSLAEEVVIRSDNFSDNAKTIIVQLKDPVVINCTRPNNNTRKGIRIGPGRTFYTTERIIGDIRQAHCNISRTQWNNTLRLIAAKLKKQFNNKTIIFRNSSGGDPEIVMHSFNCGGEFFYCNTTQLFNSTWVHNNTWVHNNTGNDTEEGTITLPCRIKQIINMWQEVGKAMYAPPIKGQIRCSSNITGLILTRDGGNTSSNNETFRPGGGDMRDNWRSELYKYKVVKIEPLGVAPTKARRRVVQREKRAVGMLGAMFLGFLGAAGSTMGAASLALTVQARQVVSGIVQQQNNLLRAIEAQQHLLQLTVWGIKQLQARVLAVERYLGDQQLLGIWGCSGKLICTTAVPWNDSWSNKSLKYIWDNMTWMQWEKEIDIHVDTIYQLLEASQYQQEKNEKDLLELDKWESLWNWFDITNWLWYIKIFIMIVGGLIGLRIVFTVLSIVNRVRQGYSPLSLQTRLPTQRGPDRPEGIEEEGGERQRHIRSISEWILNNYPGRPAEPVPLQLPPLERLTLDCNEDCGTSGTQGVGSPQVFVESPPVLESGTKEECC

Row | Structure (SMILES) | IC50
1 | CN(C)S(=O)(=O)c1cccc(-c2nn(-c3ccccc3)cc2/C=C2\SC(=S)NC2=O)c1 | 11.8 µM (active)
2 | COc1cc(C(c2c(C(=O)O)[nH]c3ccccc23)c2c(C(=O)O)[nH]c3ccccc23)ccc1OCc1ccccc1 | 7.01 µM (active)
